Measurements: patent US8481005B2, “Methods to prevent cytotoxicity using N-acetyl-cysteine” (priority 2006, dated 2013)

How the values were obtained:
Format in all cases: cell-based
PBMCs = PBMCs treated with HEMA or CDDP, FITC-Annexin V and PI; conditions: about 18 hours, highest concentration of CDDP, HEMA 0.0164M-0.00164M
Excerpt: The cells were then stained with FITC-Annexin V and PI according to the manufacturer's protocol.

active caspase 3 = assay: Active caspase 3 staining in PBMCs treated with HEMA or CDDP; conditions: HEMA 0.0164M, CDDP
[1] = system: dental pulp stromal cells; assay: Cell death of rat dental pulp stromal cells with ascorbic acid; conditions: overnight incubation; FITC Annexin V and PI
Procedure: Rat dental pulp stromal cells were next treated with HEMA in the presence and absence of another antioxidant, ascorbic acid. After an overnight incubation following procedures similar to those described above, levels of cell death were determined using FITC Annexin V and PI. […] Role of Cell Differentiation Studies

Caspase 3 = assay: Full length caspase 3 in keratinocytes; conditions: about 8 hours, NAC 20 mM
Excerpt: Roles of NFkB and GAPDH in HEMA-Mediated Cell Death

[2] = system: human dental pulp stromal cells; assay: VEGF by ELISA, human dental pulp stromal cells, NAC versus vitamin E (Table 5); conditions: 4 hours
Procedure: (§1) Following the 4 hour incubation, cells were analyzed for apoptosis using FTIC-Annexin V and PI.
Dental pulp stromal cells were then treated as described in the preceding paragraph with supernatants removed and assayed for VEGF levels by ELISA following the 4 hour incubation.

[3] = system: human dental pulp stromal cells; assay: Apoptosis of human dental pulp stromal cells, NAC versus vitamin E, 4 hours; conditions: HEMA (0.0082M), vitamin E (5 mM)
Procedure: as §1

With `N.N.[Cl][Pt][Cl]` [CDDP, Cis-diaminedichloroplatinum (II)] the “cells remained both PI and Annexin V negative” value (PBMCs) was 80% and the “active caspase 3 staining” value (active caspase 3) was 22%.
`O=C1O[C@H]([C@@H](O)CO)C(O)=C1O` [ascorbic acid] was tested, and the “reversal of apoptosis induced by HEMA” value [1] was “did not reverse apoptosis induced by HEMA”.
`CC[C@@]1(O)C(=O)OCc2c1cc1n(c2=O)Cc2cc3ccccc3nc2-1` [camptothecin] was tested, and the “levels of full length caspase 3 (processing of caspase 3)” value (Caspase 3) was “moderate effect in processing of caspase 3”.
Vitamin E [Vit E] was tested, and the “VEGF levels by ELISA, Human dental pulp stromal cells” value ([2]; no HEMA, NAC (20 mM) and/or vitamin E (5 mM)) was 1966.2, the “prevention of HEMA mediated decrease in VEGF secretion” value ([2]; vitamin E (5 mM)) was “failed to prevent the HEMA mediated decrease in VEGF secretion” and the “inhibition of HEMA mediated cell death” value [3] was “failed to inhibit HEMA mediated cell death”.
